Source: PubChem BioAssay (NCI)
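Each compound was tested at five concentrations against cells in 96-well plates for 48 hours. The concentration for full growth arrest is given as TGI.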

Experiments:
Assay in all cases: NCI-60 cell line screen, 48 h
A498 renal = tested on: A498 renal
U251 CNS = tested on: U251 CNS
RXF 393 renal = tested on: RXF 393 renal
OVCAR-3 ovarian = tested on: OVCAR-3 ovarian
IGROV1 ovarian = tested on: IGROV1 ovarian
COLO 205 colon = tested on: COLO 205 colon
HCT-116 colon = tested on: HCT-116 colon
UACC-62 melanoma = tested on: UACC-62 melanoma
SW-620 colon = tested on: SW-620 colon
MCF7 breast = tested on: MCF7 breast
MDA-MB-435 = tested on: MDA-MB-435
OVCAR-8 ovarian = tested on: OVCAR-8 ovarian
BT-549 breast = tested on: BT-549 breast
HT29 colon = tested on: HT29 colon
KM12 colon = tested on: KM12 colon
HOP-62 NSCLC = tested on: HOP-62 NSCLC
UACC-257 melanoma = tested on: UACC-257 melanoma
HS 578T breast = tested on: HS 578T breast
NCI-H23 lung = tested on: NCI-H23 lung
K-562 leukemia = tested on: K-562 leukemia
SF-268 CNS = tested on: SF-268 CNS
EKVX NSCLC = tested on: EKVX NSCLC
SK-MEL-2 melanoma = tested on: SK-MEL-2 melanoma
UO-31 renal = tested on: UO-31 renal
CAKI-1 renal = tested on: CAKI-1 renal
LOX IMVI melanoma = tested on: LOX IMVI melanoma
NCI-H522 lung = tested on: NCI-H522 lung
T-47D breast = tested on: T-47D breast
M14 melanoma = tested on: M14 melanoma
OVCAR-5 ovarian = tested on: OVCAR-5 ovarian
SNB-75 CNS = tested on: SNB-75 CNS
SK-MEL-5 melanoma = tested on: SK-MEL-5 melanoma
PC-3 prostate = tested on: PC-3 prostate
SK-OV-3 ovarian = tested on: SK-OV-3 ovarian
HL-60(TB) leukemia = tested on: HL-60(TB) leukemia
CCRF-CEM leukemia = tested on: CCRF-CEM leukemia
MALME-3M melanoma = tested on: MALME-3M melanoma
A549 NSCLC = tested on: A549 NSCLC
HCC-2998 colon = tested on: HCC-2998 colon
SK-MEL-28 melanoma = tested on: SK-MEL-28 melanoma
SF-295 CNS = tested on: SF-295 CNS
HOP-92 NSCLC = tested on: HOP-92 NSCLC
NCI-H226 lung = tested on: NCI-H226 lung
ACHN renal = tested on: ACHN renal
MDA-N = tested on: MDA-N
NCI/ADR-RES ovarian = tested on: NCI/ADR-RES ovarian
SR leukemia = tested on: SR leukemia
786-0 renal = tested on: 786-0 renal
DU-145 prostate = tested on: DU-145 prostate
SN12C renal = tested on: SN12C renal
MDA-MB-231 breast = tested on: MDA-MB-231 breast
TK-10 renal = tested on: TK-10 renal
RPMI-8226 leukemia = tested on: RPMI-8226 leukemia
NCI-H460 lung = tested on: NCI-H460 lung
HCT-15 colon = tested on: HCT-15 colon
MOLT-4 leukemia = tested on: MOLT-4 leukemia
SNB-19 CNS = tested on: SNB-19 CNS
OVCAR-4 ovarian = tested on: OVCAR-4 ovarian

COc1ccc(-c2ncnc(-c3ccc(OC)c(OC)c3)n2)cc1OC
TGI (A498 renal): > 100 µM
TGI (U251 CNS): > 100 µM
TGI (RXF 393 renal): > 100 µM
TGI (OVCAR-3 ovarian): > 100 µM
TGI (IGROV1 ovarian): > 100 µM
TGI (COLO 205 colon): > 100 µM
TGI (HCT-116 colon): > 100 µM
TGI (UACC-62 melanoma): > 100 µM
TGI (SW-620 colon): > 100 µM
TGI (MCF7 breast): > 100 µM
TGI (MDA-MB-435): > 100 µM
TGI (OVCAR-8 ovarian): > 100 µM
TGI (BT-549 breast): > 100 µM
TGI (HT29 colon): > 100 µM
TGI (KM12 colon): > 100 µM
TGI (HOP-62 NSCLC): > 100 µM
TGI (UACC-257 melanoma): > 100 µM
TGI (HS 578T breast): > 100 µM
TGI (NCI-H23 lung): > 100 µM
TGI (K-562 leukemia): > 100 µM
TGI (SF-268 CNS): > 100 µM
TGI (EKVX NSCLC): > 100 µM
TGI (SK-MEL-2 melanoma): > 100 µM
TGI (UO-31 renal): > 100 µM
TGI (CAKI-1 renal): > 100 µM
TGI (LOX IMVI melanoma): > 100 µM
TGI (NCI-H522 lung): > 100 µM
TGI (T-47D breast): > 100 µM
TGI (M14 melanoma): > 100 µM
TGI (OVCAR-5 ovarian): > 100 µM
TGI (SNB-75 CNS): > 100 µM
TGI (SK-MEL-5 melanoma): > 100 µM
TGI (PC-3 prostate): > 100 µM
TGI (SK-OV-3 ovarian): > 100 µM
TGI (HL-60(TB) leukemia): > 100 µM
TGI (CCRF-CEM leukemia): > 100 µM
TGI (MALME-3M melanoma): > 100 µM
TGI (A549 NSCLC): > 100 µM
TGI (HCC-2998 colon): > 100 µM
TGI (SK-MEL-28 melanoma): > 100 µM
TGI (SF-295 CNS): > 100 µM
TGI (HOP-92 NSCLC): > 100 µM
TGI (NCI-H226 lung): > 100 µM
TGI (ACHN renal): > 100 µM
TGI (MDA-N): > 100 µM
TGI (NCI/ADR-RES ovarian): > 100 µM
TGI (SR leukemia): > 100 µM
TGI (786-0 renal): > 100 µM
TGI (DU-145 prostate): > 100 µM
TGI (SN12C renal): > 100 µM
TGI (MDA-MB-231 breast): > 100 µM
TGI (TK-10 renal): > 100 µM

Cc1cccc(-n2c(C)nc3ccc(NC(=S)Nc4ccccc4)cc3c2=O)c1
TGI (A498 renal): > 100 µM
TGI (U251 CNS): > 100 µM
TGI (RXF 393 renal): > 100 µM
TGI (OVCAR-3 ovarian): > 100 µM
TGI (IGROV1 ovarian): > 100 µM
TGI (COLO 205 colon): > 100 µM
TGI (HCT-116 colon): > 100 µM
TGI (UACC-62 melanoma): > 100 µM
TGI (SW-620 colon): > 100 µM
TGI (MCF7 breast): > 100 µM
TGI (MDA-MB-435): > 100 µM
TGI (OVCAR-8 ovarian): > 100 µM
TGI (BT-549 breast): > 100 µM
TGI (HT29 colon): > 100 µM
TGI (KM12 colon): > 100 µM
TGI (HOP-62 NSCLC): > 100 µM
TGI (UACC-257 melanoma): > 100 µM
TGI (RPMI-8226 leukemia): > 100 µM
TGI (HS 578T breast): > 100 µM
TGI (NCI-H23 lung): > 100 µM
TGI (K-562 leukemia): > 100 µM
TGI (SF-268 CNS): > 100 µM
TGI (EKVX NSCLC): > 100 µM
TGI (SK-MEL-2 melanoma): > 100 µM
TGI (UO-31 renal): > 100 µM
TGI (CAKI-1 renal): > 100 µM
TGI (LOX IMVI melanoma): > 100 µM
TGI (NCI-H522 lung): > 100 µM
TGI (T-47D breast): > 100 µM
TGI (NCI-H460 lung): > 100 µM
TGI (HCT-15 colon): > 100 µM
TGI (OVCAR-5 ovarian): > 100 µM
TGI (SNB-75 CNS): > 100 µM
TGI (SK-MEL-5 melanoma): 57.1 µM
TGI (PC-3 prostate): > 100 µM
TGI (HL-60(TB) leukemia): > 100 µM
TGI (MOLT-4 leukemia): 71.9 µM
TGI (MALME-3M melanoma): > 100 µM
TGI (SNB-19 CNS): > 100 µM
TGI (HCC-2998 colon): 78.1 µM
TGI (SK-MEL-28 melanoma): > 100 µM
TGI (SF-295 CNS): > 100 µM
TGI (NCI-H226 lung): > 100 µM
TGI (ACHN renal): > 100 µM
TGI (MDA-N): > 100 µM
TGI (NCI/ADR-RES ovarian): > 100 µM
TGI (SR leukemia): > 100 µM
TGI (786-0 renal): > 100 µM
TGI (OVCAR-4 ovarian): > 100 µM
TGI (DU-145 prostate): > 100 µM
TGI (SN12C renal): > 100 µM
TGI (MDA-MB-231 breast): > 100 µM
TGI (TK-10 renal): > 100 µM

CN(C)C(=O)Oc1ccc[n+](C)c1
TGI (A498 renal): > 100 µM
TGI (U251 CNS): > 100 µM
TGI (RXF 393 renal): > 100 µM
TGI (OVCAR-3 ovarian): > 100 µM
TGI (IGROV1 ovarian): > 100 µM
TGI (COLO 205 colon): > 100 µM
TGI (HCT-116 colon): > 100 µM
TGI (UACC-62 melanoma): > 100 µM
TGI (SW-620 colon): > 100 µM
TGI (MCF7 breast): > 100 µM
TGI (MDA-MB-435): > 100 µM
TGI (OVCAR-8 ovarian): > 100 µM
TGI (BT-549 breast): > 100 µM
TGI (HT29 colon): > 100 µM
TGI (KM12 colon): > 100 µM
TGI (HOP-62 NSCLC): > 100 µM
TGI (UACC-257 melanoma): > 100 µM
TGI (RPMI-8226 leukemia): > 100 µM
TGI (HS 578T breast): > 100 µM
TGI (NCI-H23 lung): > 100 µM
TGI (K-562 leukemia): > 100 µM
TGI (SF-268 CNS): > 100 µM
TGI (EKVX NSCLC): > 100 µM
TGI (SK-MEL-2 melanoma): > 100 µM
TGI (UO-31 renal): > 100 µM
TGI (CAKI-1 renal): > 100 µM
TGI (LOX IMVI melanoma): > 100 µM
TGI (NCI-H522 lung): > 100 µM
TGI (T-47D breast): > 100 µM
TGI (NCI-H460 lung): > 100 µM
TGI (HCT-15 colon): > 100 µM
TGI (OVCAR-5 ovarian): > 100 µM
TGI (SNB-75 CNS): > 100 µM
TGI (SK-MEL-5 melanoma): > 100 µM
TGI (PC-3 prostate): > 100 µM
TGI (HL-60(TB) leukemia): > 100 µM
TGI (MOLT-4 leukemia): > 100 µM
TGI (MALME-3M melanoma): > 100 µM
TGI (SNB-19 CNS): > 100 µM
TGI (HCC-2998 colon): > 100 µM
TGI (SK-MEL-28 melanoma): > 100 µM
TGI (SF-295 CNS): > 100 µM
TGI (NCI-H226 lung): > 100 µM
TGI (ACHN renal): > 100 µM
TGI (MDA-N): > 100 µM
TGI (NCI/ADR-RES ovarian): > 100 µM
TGI (SR leukemia): > 100 µM
TGI (786-0 renal): > 100 µM
TGI (OVCAR-4 ovarian): > 100 µM
TGI (DU-145 prostate): > 100 µM
TGI (SN12C renal): > 100 µM
TGI (MDA-MB-231 breast): > 100 µM
TGI (TK-10 renal): > 100 µM
